Assay results as given in patent US9163256B2, “Mutant receptors and their use in a nuclear receptor-based inducible gene expression system” (priority 2004, dated 2015).

Experiments:
Test in all cases: cell-based
CfEcR-DEF mutant M125P = CfEcR-DEF mutant M125P (Choristoneura fumiferana, UniProt O77255, M408P)
Method: (§1) This construct was prepared in the same way as in switch 1.1 above except wild-type CfEcR-DEF was replaced with mutant CfEcR-DEF comprising a ligand binding domain comprising a substitution mutation selected from Table 1 below.
(§2) DNAs were transfected into mouse NIH3T3 cells (ATCC) as follows. Standard methods for culture and maintenance of the cells were followed. Cells were harvested and plated 96-well plates at 2,500 cells per well, in 50 μL of growth medium containing 10% fetal bovine serum (FBS). Twenty-four hours later, the cells were treated with 35 μL of serum-free growth medium containing either dimethylsulfoxide (DMSO; control) or a DMSO solution of ligand. The cells were then transfected using Superfect (Qiagen Inc.) transfection reagent. For each well, 0.625 μL of Superfect was mixed with 14.2 μL of serum-free growth medium. 0.16 μg of reporter construct and 0.04 μg of each receptor construct were added to the transfection reagent mix. The contents of the transfection mix were mixed in a vortex mixer and let stand at room temperature for 30 minutes. At the end of incubation, 15 μL of transfection mix was added to the cells. The cells were maintained at 37° C. and 5% CO2 for 48 hours in 5% FBS.
(§3) Reporter Assays: Cells were harvested 40 hours after adding ligands. 125 μL of passive lysis buffer (part of Dual-Luciferase reporter assay system from Promega Corporation) were added to each well of the […] plate. The plates were placed on a rotary shaker for 15 minutes. Twenty μL of lysate were assayed. Luciferase activity was measured using Dual-Luciferase reporter assay system from Promega Corporation following the manufacturer's instructions. Fold induction (FI) activities were calculated by dividing relative light units (“RLU”) in ligand treated cells with RLU in DMSO treated cells (untreated control).

CfEcR-DEF mutant T52L = CfEcR-DEF mutant T52L (Choristoneura fumiferana, UniProt O77255, T335L)
CfEcR-DEF mutant T52L, sequence (P28702 298-449): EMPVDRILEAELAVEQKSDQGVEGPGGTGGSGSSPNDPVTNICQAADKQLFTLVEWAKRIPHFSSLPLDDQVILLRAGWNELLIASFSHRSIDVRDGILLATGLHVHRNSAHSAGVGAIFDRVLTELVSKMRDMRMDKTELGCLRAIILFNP
CfEcR-DEF mutant T52L, sequence (O77255 entry or part of it T335L): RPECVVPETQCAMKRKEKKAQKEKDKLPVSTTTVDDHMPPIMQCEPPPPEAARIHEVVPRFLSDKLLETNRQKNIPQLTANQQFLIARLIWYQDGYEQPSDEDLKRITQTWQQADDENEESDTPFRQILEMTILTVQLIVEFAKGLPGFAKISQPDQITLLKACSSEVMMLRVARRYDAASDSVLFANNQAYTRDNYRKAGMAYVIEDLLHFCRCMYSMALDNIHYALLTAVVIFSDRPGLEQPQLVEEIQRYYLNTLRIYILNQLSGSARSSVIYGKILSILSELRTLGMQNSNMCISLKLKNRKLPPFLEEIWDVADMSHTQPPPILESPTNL
Method: as §1, §2, §3

CfEcR-DEF mutant V96S = CfEcR-DEF mutant V96S (Choristoneura fumiferana, UniProt O77255, V379S)
Method: as §1, §2, §3

CfEcR-DEF mutant F109W = CfEcR-DEF mutant F109W (Choristoneura fumiferana, UniProt O77255, F392W)
CfEcR-DEF mutant F109W, sequence (O77255 entry or part of it F392W): as the sequence (O77255 entry or part of it T335L) above, with L129T, F186W counted along it
CfEcR-DEF mutant F109W, sequence (P28702 299-449, further chain): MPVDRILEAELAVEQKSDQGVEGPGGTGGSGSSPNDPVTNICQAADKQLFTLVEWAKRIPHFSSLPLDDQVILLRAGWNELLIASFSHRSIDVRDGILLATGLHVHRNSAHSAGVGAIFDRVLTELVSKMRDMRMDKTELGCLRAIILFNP
Method: as §1, §2, §3

CfEcR-DEF mutant R95W = CfEcR-DEF mutant R95W (Choristoneura fumiferana, UniProt O77255, R378W)
CfEcR-DEF mutant R95W, sequence (O77255 entry or part of it R378W): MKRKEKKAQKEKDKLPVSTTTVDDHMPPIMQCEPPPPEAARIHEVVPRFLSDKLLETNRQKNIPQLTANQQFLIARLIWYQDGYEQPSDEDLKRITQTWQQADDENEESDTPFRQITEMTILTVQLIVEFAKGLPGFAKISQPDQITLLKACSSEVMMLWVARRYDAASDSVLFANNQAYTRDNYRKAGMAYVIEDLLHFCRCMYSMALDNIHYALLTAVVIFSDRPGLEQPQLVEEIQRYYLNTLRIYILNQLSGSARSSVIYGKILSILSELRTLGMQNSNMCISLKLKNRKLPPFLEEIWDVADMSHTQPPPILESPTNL
CfEcR-DEF mutant R95W, sequence (P28702 299-449, further chain): as the sequence (P28702 299-449, further chain) above
Method: as §1, §2, §3

CfEcR-DEF mutant F109N = CfEcR-DEF mutant F109N (Choristoneura fumiferana, UniProt O77255, F392N)
CfEcR-DEF mutant F109N, sequence (P28702 299-449): as the sequence (P28702 299-449, further chain) above
CfEcR-DEF mutant F109N, sequence (O77255 entry or part of it F392N): as the sequence (O77255 entry or part of it T335L) above, with L129T, F186N counted along it
Method: as §1, §2, §3

CfEcR-DEF mutant M54T = CfEcR-DEF mutant M54T (Choristoneura fumiferana, UniProt O77255, M337T)
Method: as §1, §2, §3

CfEcR-DEF mutant L234I = CfEcR-DEF mutant L234I (Choristoneura fumiferana, UniProt O77255, L517I)
CfEcR-DEF mutant L234I, sequence (P28702 299-449): as the sequence (P28702 299-449, further chain) above
CfEcR-DEF mutant L234I, sequence (O77255 entry or part of it L517I): as the sequence (O77255 entry or part of it T335L) above, with L129T, L311I counted along it
Method: as §1, §2, §3

CfEcR-DEF mutant V96L = CfEcR-DEF mutant V96L (Choristoneura fumiferana, UniProt O77255, V379L)
Method: as §1, §2, §3

CfEcR-DEF mutant F109L = CfEcR-DEF mutant F109L (Choristoneura fumiferana, UniProt O77255, F392L)
CfEcR-DEF mutant F109L, sequence (P28702 299-449): as the sequence (P28702 299-449, further chain) above
CfEcR-DEF mutant F109L, sequence (O77255 entry or part of it F392L): as the sequence (O77255 entry or part of it T335L) above, with L129T, F186L counted along it
Method: as §1, §2, §3

CfEcR-DEF mutant A110P = CfEcR-DEF mutant A110P (Choristoneura fumiferana, UniProt O77255, A393P)
Method: as §1, §2, §3

CfEcR-DEF mutant V128F = CfEcR-DEF mutant V128F (Choristoneura fumiferana, UniProt O77255, V411F); set-up: Concentration (mM) at max FI: unit not given here
Method: as §1, §2, §3

CfEcR-DEF mutant W238E = CfEcR-DEF mutant W238E (Choristoneura fumiferana, UniProt O77255, W521E); set-up: Concentration (mM) at max FI: unit not given here
CfEcR-DEF mutant W238E, sequence (P28702 299-449): as the sequence (P28702 299-449, further chain) above
CfEcR-DEF mutant W238E, sequence (O77255 entry or part of it W521E): as the sequence (O77255 entry or part of it R378W) above, with W160R, W303E counted along it
Method: as §1, §2, §3

CfEcR-DEF mutant F48Y = CfEcR-DEF mutant F48Y (Choristoneura fumiferana, UniProt O77255, F331Y); set-up: Concentration (mM) at max FI: unit not given here
Method: as §1, §2, §3

CfEcR-DEF mutant V96E = CfEcR-DEF mutant V96E (Choristoneura fumiferana, UniProt O77255, V379E); set-up: Concentration (mM) at max FI: unit not given here
Method: as §1, §2, §3

CfEcR-DEF mutant A110N = CfEcR-DEF mutant A110N (Choristoneura fumiferana, UniProt O77255, A393N); set-up: Concentration (mM) at max FI: unit not given here
Method: as §1, §2, §3

CfEcR-DEF mutant F48W = CfEcR-DEF mutant F48W (Choristoneura fumiferana, UniProt O77255, F331W); set-up: Concentration (mM) at max FI: unit not given here
Method: as §1, §2, §3

CfEcR-DEF mutant Y120M = CfEcR-DEF mutant Y120M (Choristoneura fumiferana, UniProt O77255, Y403M); set-up: Concentration (mM) at max FI: unit not given here
Method: as §1, §2, §3

CfEcR-DEF mutant F109M = CfEcR-DEF mutant F109M (Choristoneura fumiferana, UniProt O77255, F392M); set-up: Concentration (mM) at max FI: unit not given here
Method: as §1, §2, §3

CfEcR-DEF mutant T52P = CfEcR-DEF mutant T52P (Choristoneura fumiferana, UniProt O77255, T335P); set-up: Concentration (mM) at max FI: unit not given here
CfEcR-DEF mutant T52P, sequence (P28702 298-449): as the sequence (P28702 298-449) above
CfEcR-DEF mutant T52P, sequence (O77255 entry or part of it T335P): as the sequence (O77255 entry or part of it T335L) above, with L129P counted along it
Method: as §1, §2, §3

[1] = NIH3T3, 40 h, read-out: Rel Max FI
[2] = NIH3T3, mouse, 40 h, read-out: GS-E ligand max FI (relative to DMSO)

CfEcR-DEF mutant M125P, sequence (P28702 299-449): as the sequence (P28702 299-449, further chain) above
CfEcR-DEF mutant M125P, sequence (O77255 entry or part of it M408P): as the sequence (O77255 entry or part of it R378W) above, with W160R, M190P counted along it

## CCc1c(OC)cccc1C(=O)NN(C(=O)c1cc(C)cc(C)c1)C(C)(C)C [RG-102240, N-(2-ethyl-3-methoxybenzoyl)-N′-(3,5-dimethylbenzoyl)-N′-tert-butylhydrazine]
CfEcR-DEF mutant M125P
  EC50: > 33000 nM
CfEcR-DEF mutant M125P; [1]
  Emax: 100%
CfEcR-DEF mutant M125P; [2]
  maximal fold induction: 1
CfEcR-DEF mutant M125P; mutant M125P, GS-E ligand
  Concentration (mM) at max FI: 0.0333 mM
CfEcR-DEF mutant T52L
  EC50: ~500 nM
CfEcR-DEF mutant T52L; [1]
  Emax: 100%
CfEcR-DEF mutant T52L; [2]
  maximal fold induction: 1130
CfEcR-DEF mutant T52L; mutant T52L, GS-E ligand
  Concentration (mM) at max FI: 33.3 mM
CfEcR-DEF mutant V96S
  EC50: 1140 nM
CfEcR-DEF mutant V96S; [1]
  Emax: 100%
CfEcR-DEF mutant V96S; [2]
  maximal fold induction: 1830
CfEcR-DEF mutant V96S; mutant V96S, GS-E ligand
  Concentration (mM) at max FI: 33.3 mM
CfEcR-DEF mutant F109W
  EC50: 610 nM
CfEcR-DEF mutant F109W; [1]
  Emax: 100%
CfEcR-DEF mutant F109W; [2]
  maximal fold induction: 3060
CfEcR-DEF mutant F109W; mutant F109W, GS-E ligand
  Concentration (mM) at max FI: 10.00 mM
CfEcR-DEF mutant R95W
  EC50: ~7000 nM
CfEcR-DEF mutant R95W; [1]
  Emax: 100%
CfEcR-DEF mutant R95W; [2]
  maximal fold induction: 1820
CfEcR-DEF mutant R95W; mutant R95W, GS-E ligand
  Concentration (mM) at max FI: 33.30 mM
CfEcR-DEF mutant F109N
  EC50: 2700 nM
CfEcR-DEF mutant F109N; [1]
  Emax: 100%
CfEcR-DEF mutant F109N; [2]
  maximal fold induction: 1510
CfEcR-DEF mutant F109N; mutant F109N, GS-E ligand
  Concentration (mM) at max FI: 0.0333 mM
CfEcR-DEF mutant M54T
  EC50: 80 nM
CfEcR-DEF mutant M54T; [1]
  Emax: 100%
CfEcR-DEF mutant M54T; [2]
  maximal fold induction: 4460
CfEcR-DEF mutant M54T; mutant M54T, GS-E ligand
  Concentration (mM) at max FI: 10.00 mM
CfEcR-DEF mutant L234I
  EC50: 770 nM
CfEcR-DEF mutant L234I; [1]
  Emax: 100%
CfEcR-DEF mutant L234I; [2]
  maximal fold induction: 2650
CfEcR-DEF mutant L234I; mutant L234I, GS-E ligand
  Concentration (mM) at max FI: 10 mM
CfEcR-DEF mutant V96L
  EC50: ~1000 nM
CfEcR-DEF mutant V96L; [1]
  Emax: 100%
CfEcR-DEF mutant V96L; [2]
  maximal fold induction: 4380
CfEcR-DEF mutant V96L; mutant V96L, GS-E ligand
  Concentration (mM) at max FI: 10 mM
CfEcR-DEF mutant F109L
  EC50: ~2000 nM
CfEcR-DEF mutant F109L; [1]
  Emax: 100%
CfEcR-DEF mutant F109L; [2]
  maximal fold induction: 20
CfEcR-DEF mutant F109L; mutant F109L, GS-E ligand
  Concentration (mM) at max FI: 33.30 mM
CfEcR-DEF mutant A110P
  EC50: 550 nM
CfEcR-DEF mutant A110P; [1]
  Emax: 100%
CfEcR-DEF mutant A110P; [2]
  maximal fold induction: 2290
CfEcR-DEF mutant V128F; EC50, mutant V128F
  EC50: > 33000 nM
CfEcR-DEF mutant V128F; [1]
  Emax: 0%
CfEcR-DEF mutant V128F; [2]
  maximal fold induction: 550
CfEcR-DEF mutant V128F; mutant V128F, GS-E ligand
  Concentration (mM) at max FI: 33.30
CfEcR-DEF mutant W238E
  EC50: ~6000 nM
CfEcR-DEF mutant W238E; [1]
  Emax: 100%
CfEcR-DEF mutant W238E; [2]
  maximal fold induction: 1020
CfEcR-DEF mutant W238E; mutant W238E, GS-E ligand
  Concentration (mM) at max FI: 33.3
CfEcR-DEF mutant F48Y
  EC50: 1270 nM
CfEcR-DEF mutant F48Y; [1]
  Emax: 100%
CfEcR-DEF mutant F48Y; [2]
  maximal fold induction: 1360
CfEcR-DEF mutant F48Y; mutant F48Y, GS-E ligand
  Concentration (mM) at max FI: 33.3
CfEcR-DEF mutant V96E
  EC50: ~2000 nM
CfEcR-DEF mutant V96E; [1]
  Emax: 100%
CfEcR-DEF mutant V96E; [2]
  maximal fold induction: 2960
CfEcR-DEF mutant V96E; mutant V96E, GS-E ligand
  Concentration (mM) at max FI: 33.30
CfEcR-DEF mutant A110N
  EC50: 1410 nM
CfEcR-DEF mutant A110N; [1]
  Emax: 100%
CfEcR-DEF mutant A110N; [2]
  maximal fold induction: 1680
CfEcR-DEF mutant A110N; mutant A110N, GS-E ligand
  Concentration (mM) at max FI: 10.00
CfEcR-DEF mutant F48W
  EC50: ~1000 nM
CfEcR-DEF mutant F48W; [1]
  Emax: 100%
CfEcR-DEF mutant F48W; [2]
  maximal fold induction: 1640
CfEcR-DEF mutant F48W; mutant F48W, GS-E ligand
  Concentration (mM) at max FI: 33.3
CfEcR-DEF mutant Y120M
  EC50: ~4000 nM
CfEcR-DEF mutant Y120M; [1]
  Emax: 100%
CfEcR-DEF mutant Y120M; [2]
  maximal fold induction: 1710
CfEcR-DEF mutant Y120M; mutant Y120M, GS-E ligand
  Concentration (mM) at max FI: 33.3
CfEcR-DEF mutant F109M
  EC50: 660 nM
CfEcR-DEF mutant F109M; [1]
  Emax: 100%
CfEcR-DEF mutant F109M; [2]
  maximal fold induction: 1480
CfEcR-DEF mutant F109M; mutant F109M, GS-E ligand
  Concentration (mM) at max FI: 3.3
CfEcR-DEF mutant T52P
  EC50: ~10000 nM
CfEcR-DEF mutant T52P; [1]
  Emax: 100%
CfEcR-DEF mutant T52P; [2]
  maximal fold induction: 301
CfEcR-DEF mutant T52P; mutant T52P, GS-E ligand
  Concentration (mM) at max FI: 33.3
